# Patent publication US7728012B2, “Carboxamide compounds and their use as calpain inhibitors” (Abbott GmbH & Co. KG, priority 2006, dated 2010)
# pKi: −log10 of the molar value. Where a name gives a salt, the structure may show the parent alone.
# Molecular target: T1, calpain-I isolated from human erythrocytes (Homo sapiens, UniProt P07384)
# T1 construct: calpain-I—isolated from human erythrocytes; purchased Calbiochem 208713; host or cells: human erythrocytes (tissue isolate)
# T1 sequence (P07384 1-714): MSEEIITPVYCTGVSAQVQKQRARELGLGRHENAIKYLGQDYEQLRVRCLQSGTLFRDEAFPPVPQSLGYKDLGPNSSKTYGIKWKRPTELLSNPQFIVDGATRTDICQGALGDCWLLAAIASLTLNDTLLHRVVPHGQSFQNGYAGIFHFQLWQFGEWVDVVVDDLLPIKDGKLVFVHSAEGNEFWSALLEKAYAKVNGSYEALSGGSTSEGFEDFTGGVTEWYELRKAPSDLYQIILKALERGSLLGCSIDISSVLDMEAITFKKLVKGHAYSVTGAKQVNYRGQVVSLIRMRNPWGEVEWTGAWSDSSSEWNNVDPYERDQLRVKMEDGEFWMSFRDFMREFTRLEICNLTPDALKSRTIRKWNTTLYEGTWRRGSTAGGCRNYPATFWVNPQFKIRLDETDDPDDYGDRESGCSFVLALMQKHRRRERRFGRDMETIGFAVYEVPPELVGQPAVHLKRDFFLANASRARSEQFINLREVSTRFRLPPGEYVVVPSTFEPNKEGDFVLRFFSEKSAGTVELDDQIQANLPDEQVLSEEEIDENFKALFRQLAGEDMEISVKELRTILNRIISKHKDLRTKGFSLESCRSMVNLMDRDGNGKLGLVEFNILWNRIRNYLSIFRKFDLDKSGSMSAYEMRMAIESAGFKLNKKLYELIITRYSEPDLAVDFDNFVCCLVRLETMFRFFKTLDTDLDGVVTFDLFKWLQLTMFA
# T1 sequence (P04632 1-268 partner): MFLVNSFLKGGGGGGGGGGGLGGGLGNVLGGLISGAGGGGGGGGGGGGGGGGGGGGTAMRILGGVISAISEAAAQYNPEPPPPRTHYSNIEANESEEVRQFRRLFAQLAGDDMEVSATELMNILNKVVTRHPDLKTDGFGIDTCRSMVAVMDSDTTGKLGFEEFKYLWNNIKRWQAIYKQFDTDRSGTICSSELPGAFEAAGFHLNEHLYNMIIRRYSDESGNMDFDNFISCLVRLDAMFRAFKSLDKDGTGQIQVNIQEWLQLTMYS
# Assay: Calpain I kinetic fluorescence enzyme inhibition assay
# Type: biochemical
# Conditions: apparent Ki from IC50 by Cheng-Prussoff; average of 2 to 4 dose-effect plots
# Procedure: (§1) The following solutions and buffers were employed: • HBS (for 40 ml): 800 μl M HEPES; 2.16 ml 100 mM KCl; 4.8 ml 1M NaCl; 3.59 ml 5% glucose; 60 μl μM MgSO4; 400 μl 100 mM Na pyruvate, 28.19 ml water; pH 7.2-7.5. • lysis buffer (for 20 ml): 400 μl M Tris pH 8.2; 2.74 ml 1M NaCl; 520 μl 0.5M EDTA; 2 ml 10% triton X-100; 0.8 ml (=1:25) CompletePlus (1 tablet/2 ml H2O); 200 μl 100 mM Pefabloc; 13.34 ml water, pH 8.2. • TBST (10×) (for 1 l): 100 mM Tris (12.1 g); 1.5M NaCl (87 g); 1% Tween 20 (10 g), adjusted to pH 8. I Enzyme Inhibition In Vitro: • Testing for blockade of the corresponding enzymic activities was carried out by means of kinetic fluorescence assays (excitation 390 nm, emission 460 nm). • Apparent Ki values were calculated from the experimentally determined IC50 values by the Cheng-Prussoff relation assuming a reversible competitive enzyme inhibition. The Km values of the substrates used under the assay conditions indicated above were: 90 μM (Z-Phe-Arg-AMC, cathepsin B), 10 μM (Z-Gly-Pro-Arg-AMC, cathepsin K), 2 μM (Z-Phe-Arg-AMC, cathepsin L), and 30 μM (Z-Val-Val-Arg-AMC, cathepsin S). • The indicated Ki values are averages of the inhibition constants calculated on the basis of 2 to 4 independent dose-effect plots.
# (§2) The following assays were used: • 1. Calpain I: • 20 nM calpain-I—isolated from human erythrocytes (Calbiochem #208713), 100 μM Suc-Leu-Tyr-AMC (Bachem #1-1355) as substrate in buffer with 62 mM imidazole, 0.3 mM CaCl2, 0.10% CHAPS, 0.05% BSA, 1 mM DTT at pH 7.3 and room temperature. • 2. Cathepsin B: • 0.25 nM cathepsin B—isolated from human liver (Calbiochem #219362), 100 μM Z-Phe-Arg-AMC (Bachem #I-1160) as substrate 50 mM MES, 2 mM EDTA, 0.05% Brij 35, 2.5 mM L-cysteine, pH 6.0, room temperature. • 3. Cathepsin K: • 3 nM cathepsin K—activated from recombinant human procathepsin K from E. coli (Calbiochem #342001), 10 μM Z-Gly-Pro-Arg-AMC (Biomol #P-142) as substrate in 50 mM MES, 2 mM EDTA, 0.05% Brij 35, 2.5 mM L-cysteine, pH 6.0, room temperature. • 4. Cathepsin L: • 1 nM cathepsin L—isolated from human liver (Calbiochem #219402), 2 μM Z-Phe-Arg-AMC (Bachem #1-1160) as substrate in 50 mM MES, 2 mM EDTA, 0.05% Brij 35, 2.5 mM L-cysteine, pH 6.0, room temperature. • 5. Cathepsin S: • 0.5 nM recombinant human cathepsin S from E. coli (Calbiochem #219343), 20 μM Z-Val-Val-Arg-AMC (Bachem #1-1540) as substrate in 50 mM MES, 2 mM EDTA, 0.05% Brij 35, 2.5 mM L-cysteine, pH 6.0, room temperature. • The results of the in vitro determination are indicated in Table 1. The following abbreviations are used in Table 1: • The “Calpain activity” column, ++ stands for a calpain Ki (Ki(calpain)) of ≦40 nM and + means: 40 nM<Ki(Calpain)≦100 nM. • The “Sel. cat. B” column indicates the Ki(cathepsin B)/Ki(calpain) ratio. In this connection, ++ means a Ki(cathepsin B)/Ki(calpain) ratio of ≧30 and + means 10≦Ki(cathepsin B)/Ki(calpain)<30. • The “Sel. cat. K” column indicates the Ki(cathepsin K)/Ki(calpain) ratio. In this connection, ++ means a Ki(cathepsin K)/Ki(calpain) ratio of ≧30 and + means 10≦Ki(cathepsin K)/Ki(calpain)<30. • The “Sel. cat. L” column indicates the Ki(cathepsin L)/Ki(calpain) ratio. In this connection, ++ means a Ki(cathepsin L)/Ki(calpain) ratio of ≧50 and + means 30≦Ki(cathepsin L)/Ki(calpain)<50. • The “Sel. cat. S” column indicates the Ki(cathepsin S)/Ki(calpain) ratio. In this connection, ++ means a Ki(cathepsin S)/Ki(calpain) ratio of ≧100 and + means 50≦Ki(cathepsin S)/Ki(calpain)<100.
row,Compound,pKi
1,"CCCCC(NC(=O)c1cccnc1-n1cnc(-c2ccc(OC)cc2)c1)C(=O)C(N)=O (centres unmarked) [Example 12, N-{1-[Amino(oxo)acetyl]pentyl}-2-[4-(4-methoxyphenyl)-1H-imidazol-1-yl]nicotinamide]",≥ 7.40
2,"CCN(CC)c1ccc(-c2cn(-c3ncccc3C(=O)NC(Cc3ccccc3)C(=O)C(N)=O)cn2)cc1 (centres unmarked) [Example 16, N-(3-Amino-1-benzyl-2,3-dioxopropyl)-2-{4-[4-(diethylamino)phenyl]-1H-imidazol-1-yl}nicotinamide hydrochloride]",7.00 to 7.40
3,"NC(=O)C(=O)C(Cc1ccccc1)NC(=O)c1cccnc1-n1cnc(-c2ccccc2Cl)c1 (centres unmarked) [Example 19, N-(3-Amino-1-benzyl-2,3-dioxopropyl)-2-[4-(2-chlorophenyl)-1H-imidazol-1-yl]nicotinamide hydrochloride]",≥ 7.40
4,"CCCCC(NC(=O)c1cccnc1-n1cnc(-c2cccc(Cl)c2)c1)C(=O)C(N)=O (centres unmarked) [Example 21, N-{1-[Amino(oxo)acetyl]pentyl}-2-[4-(3-chlorophenyl)-1H-imidazol-1-yl]nicotinamide]",≥ 7.40
5,"NC(=O)C(=O)C(Cc1ccccc1)NC(=O)c1cc(Cl)cnc1-n1cnc(-c2ccccc2)c1 (centres unmarked) [Example 23, N-(3-Amino-1-benzyl-2,3-dioxopropyl)-5-chloro-2-(4-phenyl-1H-imidazol-1-yl)nicotinamide hydrochloride]",≥ 7.40
6,"CC(C)CC(NC(=O)c1cc(Cl)cnc1-n1cnc(-c2ccccc2)c1)C(=O)C(N)=O (centres unmarked) [Example 25, N-{1-[Amino(oxo)acetyl]-3-methylbutyl}-5-chloro-2-(4-phenyl-1H-imidazol-1-yl)nicotinamide]",≥ 7.40
7,"NC(=O)C(=O)C(Cc1ccccc1)NC(=O)c1cccnc1-n1ncc2ccccc21 (centres unmarked) [Example 77, N-(3-Amino-1-benzyl-2,3-dioxopropyl)-2-(1H-indazol-1-yl)nicotinamide]",≥ 7.40
8,"O=C[C@H](Cc1ccccc1)NC(=O)c1cccnc1-n1ccc(-c2ccccc2)n1 [Example 105, N-[(1S)-1-Formyl-2-phenylethyl]-2-(3-phenyl-1H-pyrazol-1-yl)pyridine-3-carboxamide]",≥ 7.40
9,"COc1ccc(CC(NC(=O)c2cccnc2-n2ccc(-c3cccc(C(F)(F)F)c3)n2)C(=O)C(N)=O)cc1 (centres unmarked) [Example 126, N-(3-Amino-1-{[4-(methyloxy)phenyl]methyl}-2,3-dioxopropyl)-2-{3-[3-(trifluoromethyl)phenyl]-1H-pyrazol-1-yl}pyridine-3-carboxamide]",≥ 7.40
10,"NC(=O)C(=O)C(Cc1ccccc1)NC(=O)c1cccnc1-n1ccc(-c2ccc3ocnc3c2)n1 (centres unmarked) [Example 129, N-[3-Amino-2,3-dioxo-1-(phenylmethyl)propyl]-2-[3-(1,3-benzoxazol-5-yl)-1H-pyrazol-1-yl]pyridine-3-carboxamide]",7.00 to 7.40

# The remaining lines, values ahead:
row,pKi,Compound
1,≥ 7.40,"NC(=O)C(=O)C(Cc1ccccc1)NC(=O)c1cccnc1-n1cc(-c2ccccc2)cn1 (centres unmarked) [Example 4, N-(3-Amino-1-benzyl-2,3-dioxopropyl)-2-(4-phenyl-1H-pyrazol-1-yl)nicotinamide]"
2,≥ 7.40,"CCCCC(NC(=O)c1cccnc1-n1ccc(-c2ccccc2)n1)C(=O)C(N)=O (centres unmarked) [Example 6, N-{1-[Amino(oxo)acetyl]pentyl}-2-(3-phenyl-1H-pyrazol-1-yl)nicotinamide]"
3,≥ 7.40,"CCCCC(NC(=O)c1cccnc1-n1cnc(-c2ccc(Cl)cc2)c1)C(=O)C(N)=O (centres unmarked) [Example 10, N-{1-[Amino(oxo)acetyl]pentyl}-2-[4-(4-chlorophenyl)-1H-imidazol-1-yl]nicotinamide]"
4,7.00 to 7.40,"NC(=O)C(=O)C(Cc1ccccc1)NC(=O)c1cccnc1-n1cnc(-c2ccc(N3CCOCC3)cc2)c1 (centres unmarked) [Example 14, N-(3-Amino-1-benzyl-2,3-dioxopropyl)-2-[4-(4-morpholin-4-ylphenyl)-1H-imidazol-1-yl]nicotinamide]"
5,≥ 7.40,"CCCCC(NC(=O)c1cccnc1-n1cnc(-c2ccccc2Cl)c1)C(=O)C(N)=O (centres unmarked) [Example 20, N-{1-[Amino(oxo)acetyl]pentyl}-2-[4-(2-chlorophenyl)-1H-imidazol-1-yl]nicotinamide hydrochloride]"
6,≥ 7.40,"NC(=O)C(=O)C(Cc1ccccc1)NC(=O)c1cccnc1-n1cnc(-c2cccc(Cl)c2)c1 (centres unmarked) [Example 22, N-(3-Amino-1-benzyl-2,3-dioxopropyl)-2-[4-(3-chlorophenyl)-1H-imidazol-1-yl]nicotinamide]"

# Molecular target: T2, recombinant human cathepsin S (Homo sapiens, UniProt P25774)
# T2 construct: purchased Calbiochem 219343; host or cells: E. coli
# T2 sequence (P25774 115-331): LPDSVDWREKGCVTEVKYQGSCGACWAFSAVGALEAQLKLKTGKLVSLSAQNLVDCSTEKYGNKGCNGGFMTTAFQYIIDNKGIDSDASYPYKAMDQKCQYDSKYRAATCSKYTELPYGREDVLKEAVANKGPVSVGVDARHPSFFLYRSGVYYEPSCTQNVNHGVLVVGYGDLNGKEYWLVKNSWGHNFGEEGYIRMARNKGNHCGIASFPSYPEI
# Assay: Cathepsin S kinetic fluorescence enzyme inhibition assay
# Type: biochemical
# Conditions: selectivity ratio versus calpain I
# Procedure: as §1, §2
row,Compound,Sel cat. S (Ki(cathepsin S)/Ki(calpain) ratio)
1,"CCCCC(NC(=O)c1cccnc1-n1ccc(-c2ccccc2)n1)C(=O)C(N)=O (centres unmarked) [Example 6, N-{1-[Amino(oxo)acetyl]pentyl}-2-(3-phenyl-1H-pyrazol-1-yl)nicotinamide]",+ (50≦Ki(cathepsin S)/Ki(calpain)<100)
2,"NC(=O)C(=O)C(Cc1ccccc1)NC(=O)c1cccnc1-n1cnc(-c2ccc(N3CCOCC3)cc2)c1 (centres unmarked) [Example 14, N-(3-Amino-1-benzyl-2,3-dioxopropyl)-2-[4-(4-morpholin-4-ylphenyl)-1H-imidazol-1-yl]nicotinamide]",++ (Ki(cathepsin S)/Ki(calpain) ratio of ≧100)
3,"NC(=O)C(=O)C(Cc1ccccc1)NC(=O)c1cccnc1-n1ccc(-c2ccncc2)n1 (centres unmarked) [Example 65, N-(3-Amino-1-benzyl-2,3-dioxopropyl)-2-(3-pyridin-4-yl-1H-pyrazol-1-yl)nicotinamide]",++ (Ki(cathepsin S)/Ki(calpain) ratio of ≧100)
4,"CN(C)Cc1cn(-c2ncccc2C(=O)NC(Cc2ccccc2)C(=O)C(N)=O)nc1-c1cccc(C(F)(F)F)c1 (centres unmarked) [Example 176, N-[3-Amino-2,3-dioxo-1-(phenylmethyl)propyl]-2-{4-[(dimethylamino)methyl]-3-[3-(trifluoromethyl)phenyl]-1H-pyrazol-1-yl}pyridine-3-carboxamide]",++ (Ki(cathepsin S)/Ki(calpain) ratio of ≧100)
